In ChEMBL document CHEMBL5154703, “Improved cyclobutyl nabilone analogs as potent CB1 receptor agonists” (Eur J Med Chem, 2022):
pEC50, pKi: −log10 of the molar value. The source made the active and inactive calls. The calls are words filed in the database; no cut-off is given here.

Key:
Cannabinoid receptor 1 [1] = biological target: T1, Cannabinoid receptor 1 (Rattus norvegicus, UniProt P20272); test: Displacement of [3H]-CP-55,940 from CB1R in rat brain membranes measured by radioligand based competition binding assay; assay type: cell membranes, Membrane
[2] = biological target: Cannabinoid receptor 1 (Rattus norvegicus) (UniProt P20272); test: Agonist activity at rat CB1 receptor expressed in HEK293 cells assessed as inhibition of forskolin-induced cAMP accumulation measured for 60 mins by Lance Ultra cAMP assay relative to control; assay type: functional, cell-based; conditions: filed as agonist
Cannabinoid receptor 1 [3] = biological target: T1, Cannabinoid receptor 1; test: Agonist activity at rat CB1 receptor expressed in HEK293 cells assessed as inhibition of forskolin-induced cAMP accumulation measured for 60 mins by Lance Ultra cAMP assay; assay type: functional, cell-based
Rattus norvegicus [4] = test: Hypothermic effect in female Sprague-Dawley rat model assessed as reduction in body temperature at 0.01 to 10 mg/kg measured as ED50 after 30 to 360 mins; assay type: functional; conditions: dose 0.01-10 mg/kg, time 30-360 min
Rattus norvegicus [5] = test: Antinociceptive activity against female Sprague-Dawley rat model of thermal-induced nociception at 0.01 to 10 mg/kg measured after 30 to 360 mins by tail flick test; assay type: functional; conditions: dose 0.01-10 mg/kg, time 30-360 min
Rattus norvegicus [6] = test: Hypothermic effect in female Sprague-Dawley rat model assessed as reduction in body temperature at 10 to 30 mg/kg after 30 to 360 mins; assay type: functional; conditions: dose 10-30 mg/kg; time 30-360 min
Rattus norvegicus [7] = test: Antinociceptive activity against female Sprague-Dawley rat model of thermal-induced nociception at 0.3 to 1 mg/kg assessed as increase in tail flick latency measured after 30 to 360 mins by tail flick test; assay type: functional, organism-based; conditions: dose 0.3-1 mg/kg, time 30-360 min
Rattus norvegicus [8] = test: Hypothermic effect in female Sprague-Dawley rat model assessed as reduction in body temperature at 0.01 to 10 mg/kg measured after 30 to 360 mins; assay type: functional; conditions: dose 0.01-10 mg/kg; time 30-360 min
Cannabinoid receptor 1 [9] = biological target: T2, Cannabinoid receptor 1 (Homo sapiens, UniProt P21554); test: Agonist activity at N-terminal 3HA-tagged human CB1 receptor expressed in CHO cells assessed as inhibition of forskolin-induced cAMP accumulation measured for 30 mins by FRET assay; assay type: functional, cell-based
Cannabinoid receptor 1 [10] = biological target: T2, Cannabinoid receptor 1; test: Agonist activity at N-terminal 3HA-tagged human CB1 receptor expressed in CHO cells assessed as inhibition of forskolin-induced cAMP accumulation measured for 30 mins by FRET assay relative to control; assay type: functional, cell-based; conditions: filed as agonist
Rattus norvegicus [11] = test: Hypothermic effect in female Sprague-Dawley rat model assessed as reduction in body temperature at 0.3 to 1 mg/kg after 90 mins; assay type: functional, organism-based; conditions: dose 0.3-1 mg/kg
Cannabinoid receptor 1 [12] = biological target: T2, Cannabinoid receptor 1; test: Agonist activity at human CB1 receptor expressed in CHO-K1 cells assessed as assessed as induction of beta-arrestin 2 recruitment measured for 90 mins by PathHunter assay relative to control; assay type: functional, cell-based; conditions: filed as agonist
Cannabinoid receptor 1 [13] = biological target: T2, Cannabinoid receptor 1; test: Agonist activity at human CB1 receptor expressed in CHO-K1 cells assessed as assessed as induction of beta-arrestin 2 recruitment measured for 90 mins by PathHunter assay; assay type: functional, cell-based

Chain of Cannabinoid receptor 1 (Rattus norvegicus) (P20272 whole entry): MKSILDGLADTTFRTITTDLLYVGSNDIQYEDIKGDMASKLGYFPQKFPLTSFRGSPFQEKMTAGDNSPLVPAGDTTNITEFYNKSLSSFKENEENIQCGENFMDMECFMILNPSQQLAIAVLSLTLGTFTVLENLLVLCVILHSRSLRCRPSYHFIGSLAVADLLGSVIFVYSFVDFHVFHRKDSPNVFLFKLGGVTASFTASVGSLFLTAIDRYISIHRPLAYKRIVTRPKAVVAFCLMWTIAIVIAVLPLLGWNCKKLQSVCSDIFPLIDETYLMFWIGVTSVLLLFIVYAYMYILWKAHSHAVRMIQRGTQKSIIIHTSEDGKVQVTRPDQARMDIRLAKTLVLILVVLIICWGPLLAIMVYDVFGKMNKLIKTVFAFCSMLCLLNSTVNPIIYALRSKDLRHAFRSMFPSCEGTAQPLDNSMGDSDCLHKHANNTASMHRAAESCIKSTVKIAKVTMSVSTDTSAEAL
T1 sequence (P20272 whole entry): as above
T2 sequence (P21554 whole entry): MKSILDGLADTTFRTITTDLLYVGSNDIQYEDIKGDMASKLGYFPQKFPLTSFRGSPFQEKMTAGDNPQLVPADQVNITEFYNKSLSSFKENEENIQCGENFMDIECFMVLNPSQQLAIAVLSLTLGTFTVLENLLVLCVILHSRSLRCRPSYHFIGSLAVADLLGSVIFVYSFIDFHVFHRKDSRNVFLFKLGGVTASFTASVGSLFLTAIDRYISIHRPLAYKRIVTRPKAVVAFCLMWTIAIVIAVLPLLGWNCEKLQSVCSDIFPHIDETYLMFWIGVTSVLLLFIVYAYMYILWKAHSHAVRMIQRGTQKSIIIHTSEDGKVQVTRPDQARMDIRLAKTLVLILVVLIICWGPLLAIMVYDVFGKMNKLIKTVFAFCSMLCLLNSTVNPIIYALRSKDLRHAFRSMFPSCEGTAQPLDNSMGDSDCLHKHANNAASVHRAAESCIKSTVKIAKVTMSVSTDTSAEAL

Structure (SMILES)	pKi (Cannabinoid receptor 1 [1])	also measured
CC1(C)Oc2cc(C3(CCCBr)CCC3)cc(O)c2[C@@H]2C[C@H](O)CC[C@H]21	8.06	
CC1(C)Oc2cc(C3(CCCCN=[N+]=[N-])CCC3)cc(O)c2[C@@H]2CC(=O)CC[C@H]21	7.96	
CC1(C)Oc2cc(C3(CCCCCC#N)CCC3)cc(O)c2[C@@H]2C[C@H](O)CC[C@H]21	9.16	Emax [2]: 108%; pEC50 (Cannabinoid receptor 1 [3]): 8.41
CC1(C)Oc2cc(C3(CCCCCN=[N+]=[N-])CCC3)cc(O)c2[C@@H]2C[C@@H](O)CC[C@H]21	9.04	
CC1(C)Oc2cc(C3(CCCCN4CCOCC4)CCC3)cc(O)c2[C@@H]2C[C@H](O)CC[C@H]21	8.96	
CC1(C)Oc2cc(C3(CCCCCN=[N+]=[N-])CCC3)cc(O)c2[C@@H]2CC(=O)CC[C@H]21	9.18	
CCCCCCC(C)(C)c1cc(O)c2c(c1)OC(C)(C)C1CCC(=O)CC21 (stereo not given) [NABILONE]		ED50 (Rattus norvegicus [4]): 0.38 mg/kg
CCCCCc1cc(O)c2c(c1)OC(C)(C)[C@@H]1CCC(C)=C[C@@H]21 [DRONABINOL]		ED50 (Rattus norvegicus [5]): 1.3 mg/kg; T (Rattus norvegicus [6]): 2.8 °C
CC1(C)Oc2cc(C3(CCCCCCN4CCOCC4)CCC3)cc(O)c2[C@@H]2C[C@H](O)CC[C@H]21	7.36	
CC1(C)Oc2cc(C3(CCCCN=C=S)CCC3)cc(O)c2[C@@H]2CC(=O)CC[C@H]21	8.09	
CC1(C)Oc2cc(C3(CCCCN=[N+]=[N-])CCC3)cc(O)c2[C@@H]2C[C@@H](O)CC[C@H]21	8.09	
CC1(C)Oc2cc(C3(CCCCBr)CCC3)cc(O)c2[C@@H]2CC(=O)CC[C@H]21	7.74	
CC1(C)Oc2cc(C3(CCCCCC#N)CCC3)cc(O)c2[C@@H]2CC(=O)CC[C@H]21	9.26	ED50 (Rattus norvegicus [5]): 0.14 mg/kg; Activity (Rattus norvegicus [7]): Active; T (Rattus norvegicus [8]): 6 °C; ED50 (Rattus norvegicus [4]): 0.16 mg/kg; Emax [2]: 126%; pEC50 (Cannabinoid receptor 1 [3]): 8.07; pEC50 (Cannabinoid receptor 1 [9]): 8.85; Emax (Cannabinoid receptor 1 [10]): 94%; Activity (Rattus norvegicus [11]): Active; Emax (Cannabinoid receptor 1 [12]): 93%; pEC50 (Cannabinoid receptor 1 [13]): 8.12
CC1(C)Oc2cc(C3(CCCCCC#N)CCC3)cc(O)c2[C@@H]2C[C@@H](O)CC[C@H]21	9.21	Emax [2]: 97%; pEC50 (Cannabinoid receptor 1 [3]): 8.70
CC1(C)Oc2cc(C3(CCCCN4CCOCC4)CCC3)cc(O)c2[C@@H]2CC(=O)CC[C@H]21	8.40	
CC1(C)Oc2cc(C3(CCCCN=C=S)CCC3)cc(O)c2[C@@H]2C[C@H](O)CC[C@H]21	8.84	
CC1(C)Oc2cc(C3(CCCCC#N)CCC3)cc(O)c2[C@@H]2C[C@H](O)CC[C@H]21	9.26	
CC1(C)Oc2cc(C3(CCCCCCBr)CCC3)cc(O)c2[C@@H]2C[C@H](O)CC[C@H]21	9.42	
CC1(C)Oc2cc(C3(CCCCCCBr)CCC3)cc(O)c2[C@@H]2CC(=O)CC[C@H]21	9.34	
CC1(C)Oc2cc(C3(CCCCN=[N+]=[N-])CCC3)cc(O)c2[C@@H]2C[C@H](O)CC[C@H]21	9.24	
CC1(C)Oc2cc(C3(CCCCCCBr)CCC3)cc(O)c2[C@@H]2C[C@@H](O)CC[C@H]21	9.00	
CC1(C)Oc2cc(C3(CCCCCN=C=S)CCC3)cc(O)c2[C@@H]2CC(=O)CC[C@H]21	8.31	
CC1(C)Oc2cc(C3(CCCCC#N)CCC3)cc(O)c2[C@@H]2CC(=O)CC[C@H]21	8.47	
CC1(C)Oc2cc(C3(CCCCC#N)CCC3)cc(O)c2[C@@H]2C[C@@H](O)CC[C@H]21	8.72	
CC1(C)Oc2cc(C3(CCCBr)CCC3)cc(O)c2[C@@H]2CC(=O)CC[C@H]21	7.34	
CC1(C)Oc2cc(C3(CCCCCN4CCOCC4)CCC3)cc(O)c2[C@@H]2CC(=O)CC[C@H]21	8.72	
CC1(C)Oc2cc(C3(CCCCBr)CCC3)cc(O)c2[C@@H]2C[C@H](O)CC[C@H]21	8.92	
CC1(C)Oc2cc(C3(CCCC#N)CCC3)cc(O)c2[C@@H]2C[C@H](O)CC[C@H]21	8.34	
CC1(C)Oc2cc(C3(CCCCBr)CCC3)cc(O)c2[C@@H]2C[C@@H](O)CC[C@H]21	8.95	
